In patent publication US20240076624A1, “Methods and Tools for Studying Enteroendocrine Cells” (Koninklijke Nederlandse Akademie Van Wetenschappen, priority 2020, published 2024):
Each block holds one molecule with its values, some of them ahead of it.

Experiments:
[1] = target: T1, OR51E2 (Homo sapiens, UniProt Q9H255); conditions: HEK cells after overexpression of OR51E2 (Pietraszewska-Bogiel et al., 2019); cited from earlier work
T1 construct: endogenous in cells; host or cells: human intestinal organoids NEUROG3-dTomato / TPH1-mClover carrying the Tq-Ca-FLITS calcium sensor, differentiated to EECs
T1 sequence (Q9H255 1-320): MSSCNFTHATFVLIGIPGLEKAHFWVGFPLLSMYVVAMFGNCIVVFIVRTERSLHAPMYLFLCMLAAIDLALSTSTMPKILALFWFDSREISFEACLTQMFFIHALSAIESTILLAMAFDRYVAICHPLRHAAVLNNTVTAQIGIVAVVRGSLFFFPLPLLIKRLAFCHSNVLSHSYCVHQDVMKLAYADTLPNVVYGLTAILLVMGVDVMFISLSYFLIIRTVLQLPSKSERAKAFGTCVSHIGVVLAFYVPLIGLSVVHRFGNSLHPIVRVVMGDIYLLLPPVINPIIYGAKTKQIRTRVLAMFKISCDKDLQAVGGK

[2] = target: T1, OR51E2; test: Calcium sensor (Tq-Ca-FLITS) response in TPH1-mClover NEUROG3-dTomato organoid; assay type: cell-based; conditions: for calcium flux in EECs (TPH1-negative): colon-derived reporter organoid
Excerpt: (F) Fluorescent image of a TPH1^mClover NEUROG3^dTomato organoid that is transduced with the turquoise calcium sensor Tq-Ca-FLITS, containing a nuclear localization signal. Five examples of nuclei are highlighted of which the calcium response is followed after treatment with Beta-ionone, the agonist of OR51E2.
For example, in some embodiments, the compound is beta-ionone and the sensor is a calcium sensor. Beta-ionone is an agonist of the olfactory receptor OR51E2. The mouse homologue of OR51E2 had been reported to be expressed in mouse EECs (Fleischer et al., 2015; Jovancevic et al., 2017). However, prior to the invention, it was not known which human EECs OR51E2 is expressed in. Olfactory genes in humans and mice are very different as these genes quickly evolve. Therefore, the homology of these sequences tend to be low, and it is difficult to project expression profiles of mouse olfactory genes on humans. The inventors have found two olfactory receptors that are abundantly expressed in human EECs, OR51E1 and OR51E2. […] This provided proof-of-concept that sensors combined with hormone reporters from EEC-TAG can aid the study of functional signalling responses in human EEC subtypes. Thus, calcium reporters can be combined as a measure of hormone activation with the knowledge of the expression levels of targets such as olfactory receptors in subpopulations of EECs. Thus, the use of a reporter organoid in conjunction with a calcium reporter allows for screening for activators of targets such as cell surface receptors, e.g. olfactory receptors, and such methods are provided herein. In some embodiments, the calcium assay is conducted in an intestinal organoid which is not itself a reporter organoid and a reporter organoid is used to validate which EEC subtype the calcium is being activated in and so which hormones are being activated. […] This can be extrapolated to which EEC subtype hormone secretion is being activated in.

[3] = target: T2, olfactory receptor OR51E2 (Homo sapiens, UniProt Q9H255); test: Live cell imaging of calcium reporter (Tq-Ca-FLITS) organoids; assay type: cell-based; conditions: NEUROG3-dTomato TPH1-mClover CaFLITS-Turquoise reporter organoids; FIG. 2F
T2 construct: endogenous in cells; host or cells: human intestinal organoids NEUROG3-dTomato / TPH1-mClover carrying the Tq-Ca-FLITS calcium sensor, differentiated to EECs
T2 sequence (Q9H255 1-320): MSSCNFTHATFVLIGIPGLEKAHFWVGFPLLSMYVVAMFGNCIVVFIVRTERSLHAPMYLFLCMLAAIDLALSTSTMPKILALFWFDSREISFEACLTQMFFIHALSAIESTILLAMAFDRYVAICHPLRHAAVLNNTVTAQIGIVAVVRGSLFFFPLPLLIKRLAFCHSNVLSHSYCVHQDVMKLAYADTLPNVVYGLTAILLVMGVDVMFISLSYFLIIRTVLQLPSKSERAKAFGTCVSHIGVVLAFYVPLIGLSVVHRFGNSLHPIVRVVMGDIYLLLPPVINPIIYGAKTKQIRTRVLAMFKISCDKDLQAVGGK
Protocol: A red calcium probe (pTorPE-R-GECO1, addgene plasmid #32465) was used as a template to engineer a cyan genetically encoded calcium probe. The cpApple was replaced with a circular permuted mTurquoise. The resulting probe was dubbed Tq-Ca-FLITS (Turquoise Calcium Fluorescence Lifetime Indicator for Truthful Sensing). A triple nuclear localization signal (3×nls) was added to the N-terminus of the calcium probe to simplify analysis. Details of the engineering and characterization will be described elsewhere (Van der Linden et al., in preparation).
PCRs were performed on Tq-Ca-FLITS (Fw […]atgggatcagatccaaaaaagaagag, Rev […]c[…]) as well as H2B-mMaroon (Fw […], Rev […]attaagtttgtgcccc) and the two PCRs were cloned into a lentiviral vector using InPhusion Cloning (Takara), to produce H2B-mMaroon-P2A-Tq-Ca-FLITS, two simultaneously expressed cistrons separated by a de-optimized P2A (Lo et al., 2015).
H2B-mMaroon-P2A-Tq-Ca-FLITS organoids were imaged on a Leica SP8 confocal laser scanning microscope, equipped with Argon laser and White Light Laser, the latter allowing spectral flexibility for optimal visualization of all fluorophores. […]

[4] = tested on: MLK-7K; conditions: target MLK-7K; cited from earlier work
[5] = tested on: enteroendocrine cell differentiated organoids; test: Hormone expression in EEC differentiated organoids treated with Midkine; assay type: cell-based, human

- calcium flux in non-EEC [2]: does not show calcium increases
- calcium flux in EECs (TPH1-negative) [2]: increases in calcium flux
- calcium flux in EECs (TPH1-negative) ([2]; listed as beta-ionone): calcium sparking
Molecule: CC(=O)/C=C/C1=C(C)CCCC1(C)C [Beta-ionone]
- calcium response [1]: elicit a calcium response
- calcium reporter response in EECs [3]: calcium sparking in EECs that were TPH1-negative

Molecule: c1ccc(-c2n[nH]cc2-c2ccnc3ccccc23)nc1 [LY-36494, 4-[3-(2-Pyridinyl)-1H-pyrazol-4-yl]-quinoline]
- IC50 [4]: 1400 nM

B1: Midkine: heparin-binding growth factor, cytokine; sequence SEQ ID NO:69 (protein, listed as Homo sapiens)
chain: VAKKKDKVKKGGPGSECAEWAWGPCTPSSKDCGVGFREGTCGAQTQRIRCRVPCNWKKEFGADCKYKFENWGACDGGTGTKVRQGTLKKARYNAQCQETIRVTKPCTPKTKAKAKAKKGKGKD
- expression of EEC hormones [5]: reduces the expression of all hormones
